Measurements published in article PMC11082216, “A genetically encoded biosensor to monitor dynamic changes of c-di-GMP with high temporal resolution” (Nature Communications, 2024).
pKd: −log10 of the molar value.

Key:
PdeA [1] = target: T1, PdeA (Caulobacter vibrioides, UniProt A0A0H3CDG5); experiment: activation of purified PdeA phosphodiesterase, c-di-GMP turnover read with cdGreen2, GTP dose-response; format: biochemical
T1 sequence (A0A0H3CDG5 1-555): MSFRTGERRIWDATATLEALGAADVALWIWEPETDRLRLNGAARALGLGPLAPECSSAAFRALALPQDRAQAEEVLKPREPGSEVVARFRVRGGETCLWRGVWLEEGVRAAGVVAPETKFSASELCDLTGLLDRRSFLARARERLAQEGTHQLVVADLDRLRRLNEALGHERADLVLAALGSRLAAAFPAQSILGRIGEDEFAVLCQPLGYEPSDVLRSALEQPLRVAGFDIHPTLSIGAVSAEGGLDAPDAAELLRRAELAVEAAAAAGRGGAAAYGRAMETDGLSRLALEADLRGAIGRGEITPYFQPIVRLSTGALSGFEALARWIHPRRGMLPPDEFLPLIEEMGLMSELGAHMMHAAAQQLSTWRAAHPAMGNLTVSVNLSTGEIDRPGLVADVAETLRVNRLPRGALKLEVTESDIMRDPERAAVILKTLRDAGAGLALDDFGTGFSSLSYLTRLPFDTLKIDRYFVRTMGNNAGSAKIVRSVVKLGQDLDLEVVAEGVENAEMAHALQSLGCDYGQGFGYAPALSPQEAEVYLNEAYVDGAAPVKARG

PdeA [2] = target: T1, PdeA; experiment: purified phosphodiesterase turnover of c-di-GMP read with cdGreen2; format: biochemical

Row | SMILES | pKd (PdeA [1]) | purified phosphodiesterase turnover of c-di-GMP read with cdGreen2 (PdeA [2])
1 | Nc1nc2c(ncn2[C@@H]2O[C@H](COP(=O)(O)OP(=O)(O)OP(=O)(O)O)[C@@H](O)[C@H]2O)c(=O)[nH]1 [GTP] | ~5.47 | –
2 | Nc1nc2c(ncn2[C@@H]2O[C@@H]3COP(=O)(O)O[C@H]4[C@@H](O)[C@H](n5cnc6c(=O)[nH]c(N)nc65)O[C@@H]4COP(=O)(O)O[C@H]3[C@H]2O)c(=O)[nH]1 [c-di-GMP] | – | purified cdGreen2 also accurately monitored the breakdown of c-di-GMP by all PDEs tested
